Here are results for 3 compounds from US20040127403A1, “Methods for treating and preventing Gram-positive bacteremias” (priority 2002, published 2004).

Converted amounts (≈) assume the structure as drawn. Read-outs that look alike come from different tables or passages of the source.

One test relates to S. epidermidis ATCC18972. The experiment in a line: MIC, NCCLS broth microdilution. The class given is cell-based. The note with it: Staphylococcus epidermidis, ATCC18972, S. epidermidis ATCC18972. A general note: In broth dilution the organism is exposed to a series of concentrations in liquid medium.
A further test relates to E. faecium UA392. The experiment in a line: MIC, NCCLS broth microdilution. The class given is cell-based. The note with it: Enterococcus faecium, UA392, E. faecium UA392. In a few lines:
(§1)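 To stop ramoplanin adsorbing to plastic, test media contained 0.02% BSA. MICs were then determined by NCCLS broth microdilution in two media, cation-adjusted Mueller-Hinton broth and trypticase soy broth.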

For a further test, the system named is E. faecalis A7789 Line-R. The experiment in a line: MIC, NCCLS broth microdilution. The class given is cell-based. The note with it: Enterococcus faecalis, A7789LINER. The method, boiled down: as §1
The next test has as its system S. epidermidis ATCC14990. The experiment in a line: MIC, NCCLS broth microdilution. The class given is cell-based. To be noted: Staphylococcus epidermidis, ATCC14990, S. epidermidis ATCC14990. The method, boiled down:
as §1

Another test deals with S. aureus ATCC35556 MRSA. Kind of test: MIC, NCCLS broth microdilution. To be noted: Staphylococcus aureus. The class given is cell-based. In a few lines:
as §1

The next test concerns E. faecium A 6350 Line-R. Kind of test: MIC, NCCLS broth microdilution. The class given is cell-based. In a few lines:
as §1

Test [1] concerns VanA strain of E. faecium (VRE). Kind of test: Suppression of VRE in a mouse colonization model. The format is in vivo, Mice. As for the experimental part:
Mice were colonized with a clinical isolate VanA strain of E. faecium (VRE) isolated from a septicemic patient. A single inoculation of 5×10^8 cfu VRE by oral gavage (Day 0) was followed by treatment with vancomycin in the drinking water to maintain colonization. On day 22, each group received the same vancomycin-containing drinking water. One group also received ramoplanin (100 μg/mL) in its drinking water. The dose of ramoplanin per day was estimated to be 15 mg/kg, based on a standard water consumption of 150 mL/kg/day. Treatment with ramoplanin was discontinued on Day 29, and vancomycin treatment was discontinued on Day 36. The control group consisted of five mice, while the ramoplanin group consisted of four mice.

[2] abbreviates: Day 22, prior to ramoplanin therapy, control group, 25 mg/kg/day vancomycin.
The mark [3] stands for this setting: Day 22, prior to ramoplanin therapy, ramoplanin group, on 25 mg/kg/day vancomycin.
The mark [4] stands for this setting: Day 29, control group, 25 mg/kg/day vancomycin.
[5] abbreviates: Day 36, 7 days after completion of ramoplanin therapy, former ramoplanin group, on 25 mg/kg/day vancomycin.
Where [6] appears, read: Day 36, control group, 25 mg/kg/day vancomycin.

Regarding `CC(=O)NC[C@H]1CN(c2ccc(N3CCOCC3)c(F)c2)C(=O)O1` [Linezolid], the MIC in the test on S. epidermidis ATCC18972 (Table 6, 1st, read-out: MIC) is 2 mg/L (≈ 5.93 µM); with S. epidermidis ATCC18972 (Table 6, 2nd, read-out: MIC), 1 mg/L (≈ 2.96 µM); with E. faecium UA392 (Table 6, 1st, read-out: MIC) it was 4 mg/L (≈ 11.9 µM); in the test with E. faecium UA392 (Table 6, 2nd, read-out: MIC) it was 2 mg/L (≈ 5.93 µM); in the test on E. faecalis A7789 Line-R (Table 6, 1st) it was greater than 16 mg/L; in the test on E. faecalis A7789 Line-R (Table 6, 2nd), 32 mg/L (≈ 94.9 µM). The MIC in the test with S. epidermidis ATCC14990 (Table 6, 1st, read-out: MIC) is 4 mg/L (≈ 11.9 µM); with S. epidermidis ATCC14990 (Table 6, 2nd, read-out: MIC) it was 2 mg/L (≈ 5.93 µM); in the test with S. aureus ATCC35556 MRSA (Table 6, 1st, read-out: MIC), 4 mg/L (≈ 11.9 µM); in the test on S. aureus ATCC35556 MRSA (Table 6, 2nd, read-out: MIC) it was 2 mg/L (≈ 5.93 µM).

In the case of `COc1cccc(OC)c1C(=O)N[C@@H]1C(=O)N2[C@@H]1SC(C)(C)[C@@H]2C(=O)O` [Meth., methicillin], the MIC in the test on S. epidermidis ATCC18972 (Table 6, 1st, read-out: MIC) was greater than 16 mg/L; in the test with S. epidermidis ATCC18972 (Table 6, 2nd, read-out: MIC) it was 64 mg/L (≈ 168 µM); in the test on E. faecium UA392 (Table 6, 1st, read-out: MIC) it was greater than 16 mg/L; with E. faecium UA392 (Table 6, 2nd, read-out: MIC), greater than 64 mg/L; against E. faecalis A7789 Line-R (Table 6, 1st) it was greater than 16 mg/L; in the test on E. faecalis A7789 Line-R (Table 6, 2nd) it was 32 mg/L (≈ 84.1 µM). The MIC in the test on S. epidermidis ATCC14990 (Table 6, 1st, read-out: MIC) is 1 mg/L (≈ 2.63 µM); in the test with S. epidermidis ATCC14990 (Table 6, 2nd, read-out: MIC) it was 1 mg/L (≈ 2.63 µM); in the test with S. aureus ATCC35556 MRSA (Table 6, 1st, read-out: MIC), 1 mg/L (≈ 2.63 µM); in the test with S. aureus ATCC35556 MRSA (Table 6, 2nd, read-out: MIC) it was 1 mg/L (≈ 2.63 µM).

Regarding `CN[C@H](CC(C)C)C(=O)N[C@H]1C(=O)N[C@@H](CC(N)=O)C(=O)N[C@H]2C(=O)N[C@H]3C(=O)N[C@H](C(=O)N[C@H](C(=O)O)c4cc(O)cc(O)c4-c4cc3ccc4O)[C@H](O)c3ccc(c(Cl)c3)Oc3cc2cc(c3O[C@@H]2O[C@H](CO)[C@@H](O)[C@H](O)[C@H]2O[C@H]2C[C@](C)(N)[C@H](O)[C@H](C)O2)Oc2ccc(cc2Cl)[C@H]1O` [Vancomycin], the MIC came to 4 mg/L (≈ 2.76 µM) in the test on S. epidermidis ATCC18972 (CAMHB); 4 mg/L (≈ 2.76 µM) in the test on S. epidermidis ATCC18972 (TSB); 2 mg/L (≈ 1.38 µM) in the test with S. epidermidis ATCC18972 (Table 6, 1st); 2 mg/L (≈ 1.38 µM) against S. epidermidis ATCC18972 (Table 6, 2nd); 1 mg/L (≈ 0.69 µM) against E. faecium UA392 (CAMHB); 2 mg/L (≈ 1.38 µM) against E. faecium UA392 (TSB). The minimum inhibitory concentration (MIC) was 2 mg/L (≈ 1.38 µM) in the test on E. faecium UA392 (Table 6, 1st); 2 mg/L (≈ 1.38 µM) in the test with E. faecium UA392 (Table 6, 2nd); >16, >16 μg/ml against E. faecium A 6350 Line-R (E. faecium A 6350 Line-R (Table 2), TSB); greater than 16 mg/L with E. faecium A 6350 Line-R (Enterococcus faecium, A6350LINER); 2 mg/L (≈ 1.38 µM) with E. faecalis A7789 Line-R (CAMHB); 2 mg/L (≈ 1.38 µM) in the test on E. faecalis A7789 Line-R (TSB). The MIC against E. faecalis A7789 Line-R (Table 6, 1st) was determined as 1 mg/L (≈ 0.69 µM); in the test on E. faecalis A7789 Line-R (Table 6, 2nd), 1 mg/L (≈ 0.69 µM); against S. epidermidis ATCC14990 (CAMHB), 4 mg/L (≈ 2.76 µM); in the test with S. epidermidis ATCC14990 (TSB) it was 4 mg/L (≈ 2.76 µM); in the test with S. epidermidis ATCC14990 (Table 6, 1st), 2 mg/L (≈ 1.38 µM); against S. epidermidis ATCC14990 (Table 6, 2nd) it was 2 mg/L (≈ 1.38 µM). Also, the minimal inhibitory concentration (MIC) against S. aureus ATCC35556 MRSA (CAMHB) is 1 mg/L (≈ 0.69 µM); against S. aureus ATCC35556 MRSA (TSB), greater than 16 mg/L; against S. aureus ATCC35556 MRSA (Table 6, 1st) it was 1 mg/L (≈ 0.69 µM); in the test on S. aureus ATCC35556 MRSA (Table 6, 2nd), 1 mg/L (≈ 0.69 µM). Moreover, the “% Mice with VRE” value in test [1] (setting [2]), in test [1] (setting [3]), in test [1] (setting [4]), in test [1] (setting [5]) and in test [1] (setting [6]) was 100% throughout. The “Enterococci in faeces: Total Enterococci” value in test [1] (setting [2]) turned out to be 9.6 log 10 cfu/g faeces; in test [1] (setting [3]), 9.8 log 10 cfu/g faeces; in test [1] (setting [4]), 9.3 log 10 cfu/g faeces; in test [1] (setting [5]) it was 8.6 log 10 cfu/g faeces; in test [1] (setting [6]) it was 9.6 log 10 cfu/g faeces. Besides, the “Enterococci in faeces: VRE” value in test [1] (setting [2]) was 9.7 log 10 cfu/g faeces; in test [1] (setting [3]), 9.7 log 10 cfu/g faeces; in test [1] (setting [4]) it was 9.4 log 10 cfu/g faeces; in test [1] (setting [5]), 8.7 log 10 cfu/g faeces; in test [1] (setting [6]) it was 9.3 log 10 cfu/g faeces.

The term MIC denotes the lowest concentration found to suppress growth.
